The text below walks through data of patent US11453669B2, “Polycyclic pyridone derivative” (Shionogi & Co., Ltd., priority 2018, dated 2022).

System in the first series: not listed separately
Put plainly: Clearance evaluation test (rat, intravenous). It counts as in vivo. The note with it: plasma, 1 umol/kg, rats, intravenous 1 μmol/kg, read-out: elimination half-life (t½) (converted). The text has this: Experimental Material and Method
(1) Animals used: rats were used.
(2) Rearing conditions: the rats were allowed to freely take solid feed and sterilized tap water.
(3) Dose and grouping setting: a given dose was intravenously administered. Groups were set as follows:
Intravenous administration: 1 μmol/kg (n=2)
(4) Preparation of dosing solution: the test sample was solubilized using a solvent of dimethyl sulfoxide/propylene glycol=1/1 and administered.
(5) Administration method: the test sample was administered to the tail vein through a syringe with an injection needle.
(6) Evaluation item: blood was collected over time, and the concentration of the compound of the present invention in plasma was measured using LC/MS/MS.
(7) Statistical analysis: total body clearance (CLtot) and elimination half-life (t½) were calculated as to change in the concentration of the compound of the present invention in plasma by the moment analysis method.
For the molecule `CCN1C(=O)c2c(O)c(=O)c(-c3cnn(Cc4ncc(Cl)cc4F)c3)cn2N2CCCC[C@@H]12` [II-013], the half-life is 2120 min.
On the same count and under the same terms, under `CCN1C(=O)c2c(O)c(=O)c(-c3nnc(Cc4ccc(F)cc4F)s3)cn2N2[C@H](COC)CC[C@@H]12` [II-024] stands 1420 min.

The same series, now with this note: plasma, 1 umol/kg, rats, intravenous 1 μmol/kg, read-out: total body clearance (CLtot).
As to `CCN1C(=O)c2c(O)c(=O)c(-c3cnn(Cc4ncc(Cl)cc4F)c3)cn2N2CCCC[C@@H]12` [II-013], the clearance came to 1.36 mL/h/kg.
As to `CCN1C(=O)c2c(O)c(=O)c(-c3nnc(Cc4ccc(F)cc4F)s3)cn2N2[C@H](COC)CC[C@@H]12` [II-024], the clearance came out at 2.18 mL/h/kg.

A further series deals with HIV. Put plainly: Anti-HIV activity (MT-4 cells, MTT). It counts as cell-based. The note with it: Human immunodeficiency virus 1, MT4, 96 h, read-out: EC50_nM (50% HIV inhibitory concentration). On the procedure: Serial dilutions of a test sample were prepared in a 96-well microplate (50 μL/well). 2.5×10^5 cells/mL of an MT-4 cell suspension was dispensed at 100 μL/well to the plate containing the test sample. Then, an HIV virus solution was dispensed at 50 μL/well. The plate was mixed with a plate mixer and cultured for 4 days in a CO2 incubator. An MTT (3-(4,5-dimethylthiazol-2-yl)-2,5-diphenyltetrazolium bromide) solution was dispensed at 30 μL/well. The plate was reacted for 1 hour in a CO2 incubator. 150 μL of the supernatant was removed from each well so as not to take up the cells. 150 μL of a cell lysis solution was added to each well and well mixed with a plate mixer until the cells were completely lysed. The absorbance of the mixed plate was measured at two wavelengths of 560 nm and 690 nm using a microplate reader.
For the molecule `CCN1C(=O)c2c(O)c(=O)c(-c3nnc(Cc4c(F)cc(F)cc4F)s3)cn2N2CCCC[C@@H]12` [Compound I-008], the EC50 amounted to 1.6 nM.
Regarding `CCN1C(=O)c2c(O)c(=O)c(-c3nnc(Cc4ccc(F)cc4F)s3)cn2N2[C@H](COC)CC[C@@H]12` [II-024], the EC50 was 0.13 nM.

The same series, now with this note: Human immunodeficiency virus 1, MT4, 96 h, read-out: EC50_nM (50% HIV inhibitory concentration); MT-4 cells, cultured 4 days, MTT.
As for `CCN1C(=O)c2c(O)c(=O)c(-c3cnn(Cc4ncc(Cl)cc4F)c3)cn2N2CCCC[C@@H]12` [II-013], the EC50 is 32 nM.

The target of a further series is T1, Voltage gated sodium channel (Nav1.5 channel) encoded by SCN5A gene (Homo sapiens, UniProt Q14524).
T1 construct: expressed in transfected cells; host or cells: HEK cells
T1 sequence (Q14524 whole entry): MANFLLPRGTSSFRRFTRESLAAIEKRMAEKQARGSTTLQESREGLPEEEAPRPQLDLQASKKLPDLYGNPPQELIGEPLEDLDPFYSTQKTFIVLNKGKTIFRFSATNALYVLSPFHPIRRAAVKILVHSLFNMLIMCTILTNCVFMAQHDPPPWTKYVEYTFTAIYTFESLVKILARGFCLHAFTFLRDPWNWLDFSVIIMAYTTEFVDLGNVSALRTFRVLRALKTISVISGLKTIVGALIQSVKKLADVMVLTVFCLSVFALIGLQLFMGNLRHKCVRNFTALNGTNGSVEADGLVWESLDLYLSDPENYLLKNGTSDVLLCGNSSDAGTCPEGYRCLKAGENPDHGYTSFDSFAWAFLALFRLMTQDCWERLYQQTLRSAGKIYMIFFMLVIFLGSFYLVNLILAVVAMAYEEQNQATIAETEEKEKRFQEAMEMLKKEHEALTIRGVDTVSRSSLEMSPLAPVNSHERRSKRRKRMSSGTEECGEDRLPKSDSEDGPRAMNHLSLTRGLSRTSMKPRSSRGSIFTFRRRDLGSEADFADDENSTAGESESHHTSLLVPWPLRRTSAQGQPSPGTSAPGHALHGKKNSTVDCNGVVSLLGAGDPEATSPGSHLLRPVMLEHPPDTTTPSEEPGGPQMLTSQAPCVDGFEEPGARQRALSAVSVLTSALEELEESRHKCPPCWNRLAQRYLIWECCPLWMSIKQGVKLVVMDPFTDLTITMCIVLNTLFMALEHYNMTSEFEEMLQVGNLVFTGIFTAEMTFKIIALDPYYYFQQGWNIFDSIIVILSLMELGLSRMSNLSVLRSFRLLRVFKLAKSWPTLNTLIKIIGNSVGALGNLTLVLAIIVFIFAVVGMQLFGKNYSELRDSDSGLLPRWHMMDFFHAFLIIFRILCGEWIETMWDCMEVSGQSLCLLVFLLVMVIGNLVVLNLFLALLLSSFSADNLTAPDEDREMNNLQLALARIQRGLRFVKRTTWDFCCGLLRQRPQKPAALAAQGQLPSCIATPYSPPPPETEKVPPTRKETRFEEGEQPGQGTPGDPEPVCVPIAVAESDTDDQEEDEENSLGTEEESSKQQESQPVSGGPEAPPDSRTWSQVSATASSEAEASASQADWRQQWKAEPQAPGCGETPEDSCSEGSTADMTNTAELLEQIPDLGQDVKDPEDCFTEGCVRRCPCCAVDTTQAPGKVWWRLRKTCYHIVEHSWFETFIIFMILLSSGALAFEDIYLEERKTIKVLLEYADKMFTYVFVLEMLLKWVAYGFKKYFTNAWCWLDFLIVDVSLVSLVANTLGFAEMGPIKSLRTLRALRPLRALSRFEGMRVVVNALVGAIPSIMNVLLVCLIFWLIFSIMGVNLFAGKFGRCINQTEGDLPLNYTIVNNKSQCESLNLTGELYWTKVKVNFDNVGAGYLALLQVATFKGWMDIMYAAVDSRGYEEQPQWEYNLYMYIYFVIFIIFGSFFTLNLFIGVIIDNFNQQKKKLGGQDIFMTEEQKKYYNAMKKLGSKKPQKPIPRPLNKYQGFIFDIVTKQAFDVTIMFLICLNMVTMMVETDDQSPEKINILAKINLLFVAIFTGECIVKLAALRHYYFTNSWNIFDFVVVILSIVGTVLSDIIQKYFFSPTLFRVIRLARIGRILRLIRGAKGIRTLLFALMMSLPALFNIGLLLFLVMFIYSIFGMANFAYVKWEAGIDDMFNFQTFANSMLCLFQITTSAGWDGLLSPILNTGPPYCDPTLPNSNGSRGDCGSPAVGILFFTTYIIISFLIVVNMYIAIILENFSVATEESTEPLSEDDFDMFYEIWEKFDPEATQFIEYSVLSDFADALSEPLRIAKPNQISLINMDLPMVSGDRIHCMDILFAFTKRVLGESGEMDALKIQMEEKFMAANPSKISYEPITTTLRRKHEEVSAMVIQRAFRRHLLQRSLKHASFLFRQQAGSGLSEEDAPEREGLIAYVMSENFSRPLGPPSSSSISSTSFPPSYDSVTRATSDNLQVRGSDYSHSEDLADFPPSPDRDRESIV
Put plainly: Nav test (QPatch whole cell patch clamp). It is filed as cell-based. Particulars: HEK cells expressing Nav1.5, applied 5 minutes or more, room temperature. The procedure: A cell was retained at a membrane potential of −100 mV by whole cell patch clamp method using a fully automated patch clamp system (QPatch; Sophion Bioscience A/S), and INa induced by depolarization pulse stimulation at −10 mV for 20 ms was recorded. […] The extracellular solution in which the medium and the compound of the present invention had been dissolved at each objective concentration was applied to the cell for 5 minutes or more under conditions of room temperature.
Consider `CCN1C(=O)c2c(O)c(=O)c(-c3nnc(Cc4c(F)cc(F)cc4F)s3)cn2N2CCCC[C@@H]12` [Compound I-008], for which the “ratio of maximum peak current (INa) with compound relative to medium” value turned out to be 103%.
Still for that read-out and setting: in the case of `CCN1C(=O)c2c(O)c(=O)c(-c3nnc(Cc4ccc(F)cc4F)s3)cn2N2[C@H](COC)CC[C@@H]12` [II-024] it was 89.3%.

The next series relates to HIV. Kind of series: Anti-HIV activity evaluation test using PBMC of a healthy subject. It is filed as cell-based. Particulars: Human immunodeficiency virus 1, 96 h, read-out: 90% HIV inhibitory concentration (EC90); PHA-stimulated PBMC, cultured 4 days, reverse transcriptase activity. On the procedure: Serial dilutions of a test sample were prepared in a 96-well microplate (50 μL/well). PBMC stimulated with 1.0×10^5 cells/well of Phytohemagglutinin (PHA) and an HIV virus solution were mixed for the required number of wells, and the mixture was reacted at 37° C. for 1 hour. After the reaction, the cell suspension was centrifuged and the supernatant discarded. The infected cells were dispersed in a culture solution for the required number of wells at 150 μL/well, and 150 μL/well was dispensed to a 96-well microplate containing a test sample. The plate was mixed with a plate mixer and cultured for 4 days in a C02 incubator. The reverse transcriptase activity in the culture solution was measured.
For `CCN1C(=O)c2c(O)c(=O)c(-c3nnc(Cc4c(F)cc(F)cc4F)s3)cn2N2CCCC[C@@H]12` [Compound I-008], the EC90 turned out to be 1 nM.

System in another series: not given
Experiment: not given
It counts as in vitro ADME. Particulars: human, 30 min, 0.5 μmol/L, pH 7.4. On the procedure:
Using commercially available pooled human liver microsomes, a compound of the present invention was reacted for a constant time, and a remaining rate was calculated by comparing a reacted sample and an unreacted sample, thereby, a degree at which the compound of the present invention was metabolized in liver was assessed.
A reaction was performed (oxidative reaction) at 37° C. for 0 minute or 30 minutes in the presence of 1 mmol/L NADPH in 0.2 mL of a buffer solution (50 mmol/L Tris-HCl pH 7.4, 150 mmol/L potassium chloride, 10 mmol/L magnesium chloride) containing 0.5 mg protein/mL of human liver microsomes. After the reaction, 50 μL of the reaction solution was added to 100 μL of a solution of methanol/acetonitrile=1/1 (v/v), and the mixture was mixed and centrifuged at 3000 rpm for 15 minutes. The compound of the present invention in the centrifugation supernatant was quantified by LC/MS/MS or solid-phase extraction (SPE)/MS. The amount of the compound of the present invention remaining after the reaction was calculated with the amount of the compound at 0 minutes of the reaction defined as 100%.
The molecule `CCN1C(=O)c2c(O)c(=O)c(-c3nnc(Cc4c(F)cc(F)cc4F)s3)cn2N2CCCC[C@@H]12` [Compound I-008] came in with a residual rate of 97.7.
Regarding `CCN1C(=O)c2c(O)c(=O)c(-c3nnc(Cc4ccc(F)cc4F)s3)cn2N2[C@H](COC)CC[C@@H]12` [II-024], the residual rate was 96.5.

Another series concerns HIV mutant strain 2 (E92Q/E138T/G140S/Q148H).
Experiment: not given
It is filed as cell-based. Particulars: FC=EC50 of the mutant strain/EC50 of the wild strain, HeLa-CD4 cells. The procedure: (§1) Serial dilutions of a test sample were prepared in a 96-well microplate (50 μL/well). 2.5×10^5 cells/mL of a HeLa-CD4 cell suspension was dispensed at 100 μL/well to the plate containing the test sample. Then, an HIV virus solution (wild strain and mutant strain) was dispensed at 50 μL/well. The plate was mixed with a plate mixer and cultured for 3 days in a CO2 incubator. The culture supernatant in each well was removed by suction. A cell lysis buffer in a reporter assay kit was dispensed at 100 μL/well, and the plate was frozen in a freezer (−80° C.). The plate frozen in a freezer was thawed at room temperature, then mixed with a plate mixer, and centrifuged at 1,200 rpm for 5 minutes. The supernatant of each well was dispensed at 20 μL/well to a 96-well microplate (BLACK). A chemiluminescent in the reporter assay kit reagent was dispensed at 100 μL/well and reacted at room temperature for approximately 1 hour. Then, luminescence intensity was measured using MicroBeta TRILUX.
On to `CCN1C(=O)c2c(O)c(=O)c(-c3nnc(Cc4c(F)cc(F)cc4F)s3)cn2N2CCCC[C@@H]12` [Compound I-008], for which the “FC (fold change) for mutant strain 2” value amounted to 6.9.
As for `CCN1C(=O)c2c(O)c(=O)c(-c3nnc(Cc4ccc(F)cc4F)s3)cn2N2[C@H](COC)CC[C@@H]12` [II-024], the “FC (fold change) for mutant strain 2” value stood at 11.

For a further series, the system named is HIV mutant strain 1 (E138K/G140S/Q148H/N155H).
Experiment: not given
It is filed as cell-based. Particulars: FC=EC50 of the mutant strain/EC50 of the wild strain, HeLa-CD4 cells. On the procedure:
as §1
As for `CCN1C(=O)c2c(O)c(=O)c(-c3nnc(Cc4c(F)cc(F)cc4F)s3)cn2N2CCCC[C@@H]12` [Compound I-008], the “FC (fold change) for mutant strain 1” value came out at 3.8.
On the same count and under the same terms, under `CCN1C(=O)c2c(O)c(=O)c(-c3nnc(Cc4ccc(F)cc4F)s3)cn2N2[C@H](COC)CC[C@@H]12` [II-024] stands 8.2.

For the next series, the system named is HIV. Kind of series: Anti-HIV activity evaluation test in the presence of human serum protein (MT-4 cells). It counts as cell-based. Particulars: PS=4×(EC50 with 25% human serum protein/EC50 without), 100% extrapolated value. On the procedure: Serial dilutions of a test sample were prepared in a 96-well microplate (50 μL/well). A human serum protein solution (human serum protein concentration: 50%) was dispensed into a 96-well microplate containing a test sample in an amount of 100 μL/well, and left standing at room temperature for 1 hour. 100 μL/well of the culture solution was dispensed to a plate without serum. 3.0×10^5 cells/well of MT-4 cells and 3 μL/well of HIV virus solution were mixed for the required number of wells and the mixture was reacted at 37° C. for 1 hour. After the reaction, the cell suspension was centrifuged and the supernatant discarded. The infected cells were dispersed in a culture solution for the required number of wells at 50 μL/well, and 50 μL/well was dispensed to a 96-well microplate containing the test sample and human serum protein (human serum protein final concentration: 25%). The plate was mixed with a plate mixer and cultured for 4 days in a CO2 incubator. An MTT (3-(4,5-dimethylthiazol-2-yl)-2,5-diphenyltetrazolium bromide) solution was dispensed at 30 μL/well. The plate was reacted for 1 hour in a CO2 incubator. 150 μL of the supernatant was removed from each well so as not to take up the cells. […] The absorbance of the mixed plate was measured at two wavelengths of 560 nm and 690 nm using a microplate reader. […]
As to `CCN1C(=O)c2c(O)c(=O)c(-c3nnc(Cc4c(F)cc(F)cc4F)s3)cn2N2CCCC[C@@H]12` [Compound I-008], the “potency shift (PS) in the presence of human serum protein” value is on record as 116.

As a reminder, the half-life is how long it takes for the measured level to halve. By clearance is commonly meant the volume of plasma or blood freed of the substance per unit of time.
